# Test results published in patent US6727076B2 (priority 1995, dated 2004).
# Peptide text beside a SMILES is read from it.
# Columns and labels:
# S. typhimurium pyrCΔ73 = type: cell-based, Salmonella typhimurium
# T. harzianum DAOM 190830 = type: cell-based, Trichoderma harzianum
# [1] = tested on: E. coli 287 (ATCC #11775); type: cell-based
# E. coli MG1655 [2] = type: cell-based
# [3] = tested on: E. coli strain 14445 (MG1655 himA); type: cell-based
# [4] = tested on: E. coli strain 14443 (MG1655 (FB426)); type: cell-based
# [5] = tested on: E. coli strain 14444 (MG1655 xylA); type: cell-based
# [6] = tested on: E. coli strain 6321 (MG1655); type: cell-based; note: key: '+' indicates that the organism tested was capable of utilizing the carbon source listed; '−' indicates that the organism tested was not capable of utilizing the carbon source listed; 'w' indicates weak positive reactions
# [7] = tested on: E. coli strain 6320 (W3110); type: cell-based; note: key: '+' indicates that the organism tested was capable of utilizing the carbon source listed; '−' indicates that the organism tested was not capable of utilizing the carbon source listed; 'w' indicates weak positive reactions
# [8] = tested on: E. coli strain 13675 (O157); type: cell-based
# [9] = tested on: E. coli strain 11547 (O157:H7); type: cell-based
# [10] = tested on: E. coli strain 13671 (O157:H? gur+); type: cell-based
# [11] = tested on: E. coli strain 13673 (O157); type: cell-based
# [12] = tested on: E. coli strain 6322 (EMG2 (K12, λF+)); type: cell-based; note: key: '+' indicates that the organism tested was capable of utilizing the carbon source listed; '−' indicates that the organism tested was not capable of utilizing the carbon source listed; 'w' indicates weak positive reactions
# E. coli MG1655 [13] = type: cell-based; remark: listed apart in the source
compound,measurement,setting,value
Nc1nc2nc[nH]c2c(=O)[nH]1 [guanine],growth stimulation by supplement (well color),S. typhimurium pyrCΔ73,turned weakly purple
Nc1ccn([C@@H]2O[C@H](CO)[C@@H](O)[C@H]2O)c(=O)n1 [cytidine],growth stimulation by supplement (well color),S. typhimurium pyrCΔ73,turned purple
OC[C@H]1O[C@@H](n2cnc3c(O)ncnc32)[C@H](O)[C@@H]1O [Inosine],carbon source utilization result,T. harzianum DAOM 190830,positive
same,carbon source utilization result,[1],positive
same,"suitability as nitrogen source (growth, purple color)",E. coli MG1655 [2],not suitable
same,growth stimulation by supplement (well color),S. typhimurium pyrCΔ73,turned weakly purple
O=C1CC[C@@H](C(=O)O)N1 [L-pyroglutamic acid],carbon source utilization result,T. harzianum DAOM 190830,positive
same,carbon source utilization result,[1],positive/negative
same,"suitability as nitrogen source (growth, purple color)",E. coli MG1655 [2],not suitable
CCC(=O)C(=O)O [α-ketobutyric acid],carbon source utilization result,[1],positive
same,"carbon source utilization, in words",[3],negative
O=C[C@H](O)[C@@H](O)[C@H](O)CO [D-xylose],"carbon source utilization, in words",[4],positive
same,"carbon source utilization, in words",[5],negative
Nc1ncnc2c1ncn2[C@H]1C[C@H](O)[C@@H](CO)O1 [2′-deoxy-adenosine],growth stimulation by supplement (well color),S. typhimurium pyrCΔ73,turned weakly purple
CO[C@H]1O[C@H](CO)[C@H](O)[C@H](O)[C@H]1O [α-methyl galactoside],carbon source utilization,[6],+
same,carbon source utilization,[4],+
same,carbon source utilization,[7],+
same,carbon source utilization,[8],+
same,carbon source utilization,[9],+
same,carbon source utilization,[10],+
same,carbon source utilization,[5],+
same,carbon source utilization,[3],+
same,carbon source utilization,[11],+
same,carbon source utilization,[12],+
Nc1ccn([C@@H]2O[C@H](COP(=O)(O)O)[C@@H](O)[C@H]2O)c(=O)n1 [cytidine 5′-monophosphate],"suitability as phosphorus source (growth, purple color)",E. coli MG1655 [13],positive
same,growth stimulation by supplement (well color),S. typhimurium pyrCΔ73,turned purple
NCC(=O)N[C@@H](CCC(=O)O)C(=O)O [Glycyl-L-glutamic acid] (H-Gly-Glu-OH),carbon source utilization result,T. harzianum DAOM 190830,positive
same,carbon source utilization result,[1],positive
same,"suitability as nitrogen source (growth, purple color)",E. coli MG1655 [2],positive
OC[C@H]1O[C@H](O[C@H]2[C@H](O)[C@@H](O)[C@H](O)O[C@@H]2CO)[C@H](O)[C@@H](O)[C@@H]1O [Maltose],carbon source utilization result,[1],positive
same,"carbon source utilization, in words",[5],negative
same,"carbon source utilization, in words",[3],negative
O=c1ccn([C@H]2C[C@H](O)[C@@H](CO)O2)c(=O)[nH]1 [2-deoxyuridine],growth stimulation by supplement (well color),S. typhimurium pyrCΔ73,turned purple
Nc1ccn([C@@H]2O[C@H](CO)[C@@H](OP(=O)(O)O)[C@H]2O)c(=O)n1 [cytidine 3′-monophosphate],"suitability as phosphorus source (growth, purple color)",E. coli MG1655 [13],positive
same,growth stimulation by supplement (well color),S. typhimurium pyrCΔ73,turned purple
Tween-80,carbon source utilization,[6],+
same,carbon source utilization result,T. harzianum DAOM 190830,positive
same,carbon source utilization,[4],−
same,carbon source utilization result,[1],positive
same,carbon source utilization,[5],−
same,carbon source utilization,[3],−
C[C@H](N)C(=O)NCC(=O)O [L-alanyl-glycine] (H-Ala-Gly-OH),carbon source utilization result,T. harzianum DAOM 190830,positive
same,carbon source utilization result,[1],positive
same,"suitability as nitrogen source (growth, purple color)",E. coli MG1655 [2],positive
O=C(O)C[C@@H](O)C(=O)O [D-malic acid],carbon source utilization,[6],+
same,carbon source utilization,[4],+
same,carbon source utilization,[7],+
same,carbon source utilization,[9],+
same,carbon source utilization,[10],+
same,carbon source utilization,[5],+
same,carbon source utilization,[3],+
same,carbon source utilization,[11],+
same,carbon source utilization,[12],+
Nc1ccn([C@@H]2O[C@H](CO)[C@@H](O)[C@H]2OP(=O)(O)O)c(=O)n1 [cytidine 2′-monophosphate],"suitability as phosphorus source (growth, purple color)",E. coli MG1655 [13],not suitable
same,growth stimulation by supplement (well color),S. typhimurium pyrCΔ73,turned purple
Tween-20,carbon source utilization,[4],−
same,carbon source utilization,[7],−
same,carbon source utilization,[5],−
same,carbon source utilization,[3],−
Nc1nc2c(ncn2[C@H]2C[C@H](O)[C@@H](CO)O2)c(=O)[nH]1 [2′deoxyguanosine],growth stimulation by supplement (well color),S. typhimurium pyrCΔ73,turned weakly purple
"Nc1ncnc2c1ncn2[C@@H]1O[C@H](CO)[C@@H](OP(=O)(O)O)[C@H]1O [adenosine 3-monophosphate, adenosine 3′-monophosphate]","suitability as phosphorus source (growth, purple color)",E. coli MG1655 [13],positive
same,growth stimulation by supplement (well color),S. typhimurium pyrCΔ73,turned weakly purple
O=c1ccn([C@@H]2O[C@H](CO)[C@@H](OP(=O)(O)O)[C@H]2O)c(=O)[nH]1 [uridine 3′-monophosphate],"suitability as phosphorus source (growth, purple color)",E. coli MG1655 [13],positive
same,growth stimulation by supplement (well color),S. typhimurium pyrCΔ73,turned purple
O=C(O)CO [Glycolic acid],"carbon source utilization, in words",[3],negative
CC(=O)N[C@H]1C(O)O[C@H](CO)[C@@H](O)[C@@H]1O (stereo partly drawn) [N-acetyl-D-glucosamine],carbon source utilization result,T. harzianum DAOM 190830,positive
same,carbon source utilization result,[1],positive
same,"suitability as nitrogen source (growth, purple color)",E. coli MG1655 [2],positive
O=c1ccn([C@@H]2O[C@H](COP(=O)(O)O)[C@@H](O)[C@H]2O)c(=O)[nH]1 [uridine 5′-monophosphate],"suitability as phosphorus source (growth, purple color)",E. coli MG1655 [13],positive
same,growth stimulation by supplement (well color),S. typhimurium pyrCΔ73,turned purple
O=C(O)[C@@H](O)[C@@H](O)[C@H](O)[C@@H](O)C(=O)O [D-saccharic acid],"carbon source utilization, in words",[8],negative
same,"carbon source utilization, in words",[9],negative
same,"carbon source utilization, in words",[10],negative
same,"carbon source utilization, in words",[11],negative
C[C@H](O)[C@@H](O)[C@@H](O)[C@H](O)C=O [L-fucose],carbon source utilization result,T. harzianum DAOM 190830,positive
same,carbon source utilization result,[1],positive
O=c1ccn([C@@H]2O[C@H](CO)[C@@H](O)[C@H]2O)c(=O)[nH]1 [Uridine],carbon source utilization result,[1],positive
same,"suitability as nitrogen source (growth, purple color)",E. coli MG1655 [2],not suitable
same,growth stimulation by supplement (well color),S. typhimurium pyrCΔ73,turned purple
dextrin,carbon source utilization result,T. harzianum DAOM 190830,positive
same,carbon source utilization result,[1],positive
Nc1ncnc2c1ncn2[C@@H]1O[C@H](COP(=O)(O)O)[C@@H](O)[C@H]1O [adenosine 5′-monophosphate],"suitability as phosphorus source (growth, purple color)",E. coli MG1655 [13],not suitable
same,growth stimulation by supplement (well color),S. typhimurium pyrCΔ73,turned weakly purple
O=C(O)CCC(=O)O [Succinic acid],carbon source utilization result,T. harzianum DAOM 190830,positive
same,carbon source utilization result,[1],positive
COC(=O)C(C)=O [Methyl pyruvate],carbon source utilization result,T. harzianum DAOM 190830,positive
same,carbon source utilization result,[1],positive
Nc1nc2c(ncn2[C@@H]2O[C@H](CO)[C@@H](O)[C@H]2OP(=O)(O)O)c(=O)[nH]1 [guanosine 2′-monophosphate],"suitability as phosphorus source (growth, purple color)",E. coli MG1655 [13],positive
same,growth stimulation by supplement (well color),S. typhimurium pyrCΔ73,turned weakly purple
OC[C@@H](O)[C@@H](O)[C@H](O)[C@@H](O)CO [D-sorbitol],carbon source utilization result,T. harzianum DAOM 190830,positive
same,carbon source utilization result,[1],positive
same,"carbon source utilization, in words",[8],negative
same,"carbon source utilization, in words",[9],negative
same,"carbon source utilization, in words",[10],negative
same,"carbon source utilization, in words",[11],negative
CCC(O)C(=O)O (stereo not drawn) [α-hydroxy butyric acid],"carbon source utilization, in words",[3],negative
Nc1ccn([C@H]2C[C@H](O)[C@@H](CO)O2)c(=O)n1 [2-deoxycytidine],growth stimulation by supplement (well color),S. typhimurium pyrCΔ73,turned purple
CC(O)CC(=O)O (stereo not drawn) [β-hydroxybutyric acid],carbon source utilization result,T. harzianum DAOM 190830,positive
same,carbon source utilization result,[1],negative
Nc1ncnc2c1ncn2[C@@H]1O[C@H](CO)[C@@H](O)[C@H]1OP(=O)(O)O [adenosine-2′-monophosphate],"suitability as phosphorus source (growth, purple color)",E. coli MG1655 [13],positive
same,growth stimulation by supplement (well color),S. typhimurium pyrCΔ73,turned weakly purple
Nc1cc[nH]c(=O)n1 [cytosine],"suitability as nitrogen source (growth, purple color)",E. coli MG1655 [2],not suitable
same,growth stimulation by supplement (well color),S. typhimurium pyrCΔ73,turned purple
CCC(=O)O [Propionic acid],carbon source utilization result,[1],positive
same,"carbon source utilization, in words",[3],negative
O=c1cc[nH]c(=O)[nH]1 [uracil],"suitability as nitrogen source (growth, purple color)",E. coli MG1655 [2],not suitable
same,growth stimulation by supplement (well color),S. typhimurium pyrCΔ73,turned purple
N[C@@H](Cc1ccccc1)C(=O)O [L-phenylalanine],carbon source utilization result,T. harzianum DAOM 190830,positive
same,carbon source utilization result,[1],positive/negative
same,"suitability as nitrogen source (growth, purple color)",E. coli MG1655 [2],not suitable
OC[C@H]1O[C@H](O)[C@H](O)[C@@H](O)[C@@H]1O [α-D-glucose],carbon source utilization result,T. harzianum DAOM 190830,positive
same,carbon source utilization result,[1],positive
Nc1nc2c(ncn2[C@@H]2O[C@H](COP(=O)(O)O)[C@@H](O)[C@H]2O)c(=O)[nH]1 [guanosine 5′-monophosphate],"suitability as phosphorus source (growth, purple color)",E. coli MG1655 [13],positive
same,growth stimulation by supplement (well color),S. typhimurium pyrCΔ73,turned weakly purple
